Reference: patent US20020001582A1, “Methods and compositions for inhibiting microbial growth” (priority 1999, published 2002)

What was measured:
G. graminis = experiment: Suppression of fungal disease on young bentgrass, greenhouse trial; format: in vivo; conditions: 5,000 and 10,000 ppm
Protocol: (§1) Creeping bentgrass (Agrotis spp.) cv. Penncross was used as the host in the greenhouse trials. This species is widely used in golf greens and is easily managed under greenhouse conditions. Bentgrass was seeded in 6 cm diameter and 5 cm height pots (made from PVC pipes) containing steam sterilized river washed sand. A seeding rate of 0.1 g/pot was used to ensure rapid establishment of a uniform, dense stand. Throughout the experiment, the grass was regularly watered, fertilized and maintained at a cutting height approximately 2.0 cm above the soil surface.
(§2) Virulent isolates of test fungi were grown on a rye grain medium for approximately one week. This medium consisted of 50 g of rye grain, 1 g of CaCO3, and 75 ml of water. It was prepared in a 250 ml Erlenmeyer flask and autoclaved for 30 minutes. Three to five plugs of the actively growing mycelia from week old cultures on potato dextrose agar were transferred into flasks, and incubated in the dark at room temperature.
(§3) Pots of eight-week-old bentgrass were inoculated with the test fungi by placing 2-3 kernels of infected rye in the center of the grass area, just above the soil surface. After inoculation, pots were placed in humidity chambers on a greenhouse bench. Temperature during incubation was maintained at 27-30° C. for disease development and the growth of the test fungi.
(§4) Approximately 1.6-2.4 ml was applied to each pot and the treatment was repeated 24 hours later. Untreated bentgrass was used as a control. All treatments were replicated 8 times and arranged in a completely randomized design. This trial was repeated three times.

S. homoeocarpa = experiment: as above; format: in vivo
Protocol: as §1, §2, §3, §4

Sclerotinia homoeocarpa [1] = experiment: Protective treatment of mature bentgrass (lysozyme 24 hours before inoculation); format: in vivo
Protocol: (§5) One year old bentgrass (Agrotis spp.) cv Pennlink was used as the host in this trial. It was grown in an open field at Select Sand Farm in Fort Langley, B.C. Round pieces of turfgrass, 6 cm diameter, were cut out and placed on 5 cm high pots (made from PVC pipes) containing steam sterilized river washed sand. The potted grass was regularly watered, fertilized and maintained at a cutting height of approximately 2.0 cm above the soil surface.
(§6) The efficacy of egg white lysozyme was tested on Sclerotinia homoeocarpa. Virulent isolates of the test fungi were grown on a rye grain medium for approximately one week. This medium consisted of 50 g of rye grain, 1 g of CaCO3, and 75 ml of water. The medium was prepared in a 250 ml Erlenmeyer flask and autoclaved for 30 minutes. Three to five plugs of the actively growing mycelia from one-week-old culture on potato dextrose agar were transferred into flasks, and incubated in the dark at room temperature.
Lysozyme was applied with a hand held spray bottle. Treated and untreated bentgrass was then inoculated with the test fungi by placing 3 infected rye kernels in the center of the pot, just above the soil surface. After inoculation, the pots were placed in humidity chambers on a greenhouse bench. […]
(§7) Pots were removed from the humidity chamber and evaluated individually for disease severity. […]

Sclerotinia homoeocarpa [2] = experiment: Suppressive treatment of mature bentgrass (lysozyme 24 and 48 hours after inoculation); format: in vivo; conditions: day 7, 14 or 21, except 5,000 ppm on day 21
Protocol: as §5, §6
In a second test three weeks after it was potted, the bentgrass was first inoculated with the test fungi by placing 3 infected rye kernels in the center of the pot, just above the soil surface. After inoculation, the pots were placed in humidity chambers on a greenhouse bench. Temperature during incubation was maintained at 27-30° C. for disease development. […]
as §7

[3] = system: Phytophthora cinnamomi (IM194); experiment: Inhibition of Phytophthora by lysozyme in PD broth, % plate coverage; format: cell-based; conditions: for fungal growth (% plate coverage): 2 weeks after inoculation
Protocol: (§8) Potato dextrose broth was prepared, poured into glass dilution bottles (100 ml each), autoclaved and allowed to cool. […] A fungal square (plug) of each culture was cut and placed in/near the center of each plate. Fungal growth was quantified by measuring the diameter of growth of each fungus while it was growing on the liquid media in each petri dish using a ruler. Each treatment was done in triplicate.
The experiment was repeated three times (three batches). The observation period for each batch was 2 weeks.
The fungal growth was expressed in % coverage of the petri dishes by the fungal patches. The calculation can be presented in the following equation:
(§9) Fungal growth (%)=(area of fungal patch/total plate area)×100

[4] = system: IM080 Botrytis (pepper, BCMAF F24); experiment: Inhibition of Botrytis by lysozyme in PD broth, % plate coverage; format: cell-based; conditions: for average fungal growth (% plate coverage): day 14
Protocol: as §8, with “Botrytis was grown in petri dishes on PD agar. Potato” for “Potato”, “triplicate. The experiment was repeated three times (three batches). The observation period for each batch was 2 weeks.” for “triplicate.”
(§10) The fungal growth was expressed in % coverage of the petri dishes by the fungal patches. The calculation is presented in the following equation:
Fungal growth (%)=(area of fungal patch/total plate area )×100
The average plate coverage for each treatment was plotted against the time after inoculation (FIGS. 14-19). Statistical analysis was carried out using SigmaStat (Version 2.0, SPSS Science, 1997).

IM114 (Monilinia) = experiment: Inhibition of Monilinia by lysozyme in PD broth, % plate coverage; format: cell-based
Protocol: as §8, with “Monilinia was grown in petri dishes on PD agar. Potato” for “Potato”, “with triplicates. The experiment was repeated three times (three batches). The observation period for each batch was 2 weeks.” for “in triplicate.”
as §10, §9
(§11) The average plate coverage for the treatments was plotted against the time after inoculation (FIGS. 20 and 21). Statistical analysis was carried out using SigmaStat (Version 2.0, SPSS Science, 1997).

IM115 (Monilinia) = experiment: as above; format: cell-based
Protocol: as §8, with “Monilinia was grown in petri dishes on PD agar. Potato” for “Potato”, “with triplicates. The experiment was repeated three times (three batches). The observation period for each batch was 2 weeks.” for “in triplicate.”
as §10, §9, §11

lysozyme: type c egg white lysozyme, enzyme of approximately 129 amino acids; commercially available from Canadian Inovatech, Inc.
control against G. graminis (G. graminis): good control
S. homoeocarpa inhibition compared to the untreated control (S. homoeocarpa; 2,500, 5,000 and 10,000 ppm sprayed 24 and 48 h after inoculation, day 7, 14 and 21): significant S. homoeocarpa inhibition
infection compared with bentgrass treated with 2,500 ppm (S. homoeocarpa; 5,000 and 10,000 ppm, day 14 and 21 after inoculation): significantly less infection
differences in disease severity among the three lysozyme concentrations (Sclerotinia homoeocarpa [1]; 5,000, 10,000, 20,000 ppm): no significant differences
disease severity compared to the untreated control (Sclerotinia homoeocarpa [1]; 5,000, 10,000 or 20,000 ppm, day 7, 10 or 21 after inoculation, p≦0.01): significant reductions
reducing the infection of S. homoeocarpa (Sclerotinia homoeocarpa [2]): not effective
fungal growth (% plate coverage) ([3]; 50 ppm): 50%
fungal growth (% plate coverage) ([3]; 100 ppm): 35%
fungal growth compared with 100, 50 or 0 ppm (Tukey test) ([3]; 250, 500 or 1000 ppm, p<0.05): significantly lower
fungal growth (% plate coverage) ([3]; 250 ppm): 7%
fungal growth (% plate coverage) ([3]; 500 ppm): 4%
Minimum lysozyme usage recommended [4]: 250-500 ppm
average fungal growth (% plate coverage) ([4]; 50 ppm): 77.7%
average fungal growth (% plate coverage) ([4]; 100 ppm): 79.5%
fungal growth (% plate coverage) compared to 0, 50 and 100 ppm (Tukey) ([4]; 250, 500 and 1000 ppm): significantly reduced
average fungal growth (% plate coverage) ([4]; 250 ppm): 38.6%
average fungal growth (% plate coverage) ([4]; 500 ppm): 25.7%
average fungal growth (% plate coverage) ([4]; 1000 ppm): 20.8%
concentration that can significantly inhibit the growth for at least 2 weeks (IM114 (Monilinia); in general, in vitro, PD broth): 250-500 ppm
concentration showing significant fungal growth reduction (IM114 (Monilinia); p<0.05): 100 ppm
concentration that can significantly inhibit the growth for at least 2 weeks (IM115 (Monilinia); in general, in vitro, PD broth): 250-500 ppm
concentration showing significant fungal growth reduction (IM115 (Monilinia); p<0.05): 100 ppm
